According to patent US7259004B1, “Endophytic streptomycetes from higher plants with biological activity” (Montana State University, priority 2002, dated 2007):

How the values were obtained:
[1] = test system: Enterococcus faecalis ATCC 29212; assay: disk diffusion assay; assay type: cell-based
[2] = test system: Acinetobacter sp. ATCC 49137; assay: disk diffusion assay; assay type: cell-based; details: for Disk Diffusion, Acinetobacter spp. 49137: kakadumycin B at 10 μg, control antibiotic, MHA 35° C.; for diameter of the zone of inhibition, Acinetobacter sp. ATCC 49137: 10 micrograms per disk, ciprofloxacin 5, vancomycin 30 micrograms per disk, grown at 30° C.
[3] = test system: Staphylococcus aureus ATCC 29213; assay: disk diffusion assay; assay type: cell-based
[4] = test system: S. epidermis ATCC 12228; assay: disk diffusion assay; assay type: cell-based, Staphylococcus epidermidis
[5] = test system: human red blood cells
[6] = test system: Enterococcus faecium ATCC 49624; assay: disk diffusion assay; assay type: cell-based
[7] = test system: Burkholderia cepacia ATCC 25416; assay: disk diffusion assay; details: kakadumycin B at 10 μg; control antibiotic; MHA 35° C.
[8] = test system: Shigella dysenteriae ATCC 11835; assay: disk diffusion assay; assay type: cell-based; details: for Disk Diffusion, Shigella dysenteriae 11835: kakadumycin B at 10 μg, control antibiotic, MHA 35° C.
[9] = test system: Human Breast Cancer Epithelial BT-20; assay: CellTiter 96 Aqueous Non-Radioactive Cell Proliferation Assay; assay type: cell-based
Protocol: (§1) The munumbicins were then tested against three human cancer cell lines (ATCC) and human primary mammary epithelial cells (HMECs) (Clonetics; Biowhittaker, Walkersville, Md.) using a CellTiter 96® Aqueous Non-Radioactive Cell Proliferation Assay kit from Promega (Madison, Wis.). The cell lines were A-549 (lung epithelial carcinoma, ATCC CCL-185), ME-180 (cervical epithelial epidermoid carcinoma, ATCC HTB-33), and BT-20 (breast epithelial cancer, ATCC HTB-19), and were grown in the media recommended by ATCC. The primary mammary cells were cultured as recommended by the manufacturer in mammary epithelial cell growth media (MEGM®). […] After seeding, the cells were incubated for five hours at 37° C. before addition of the munumbicins. Two-fold serial dilutions of the munumbicins were made in the culture medium, and a volume equal to that of the seeded cells for each dilution was added to three wells of cells. Each plate also contained some wells with cells plus medium only and some wells with medium only. […] The A-549 and ME-180 cells were incubated for 48 hours. […] The plates were incubated at 37° C. for one to four hours, and the OD490 was determined. The OD reading of all wells was corrected for background by subtracting the reading of wells containing medium only. […] Kakadumycin A was tested against three human cancer cell lines (ATCC) and human primary mammary epithelial cells using the procedure described above for the munumbicins. Kadadumycin B was tested against one human cancer cell line.

[10] = test system: Human Primary Mammary Epithelial HMEC; assay: as above; assay type: cell-based
Protocol: as §1

[11] = test system: Enterococcus faecalis ATCC 51299; assay: disk diffusion assay; assay type: cell-based; details: for Disk Diffusion, Enterococcus faccalis (VRE) 51299: kakadumycin B at 10 μg, control antibiotic, MHA 35° C.; for diameter of the zone of inhibition, Enterococcus faecalis ATCC 51299: 10 micrograms per disk, ciprofloxacin 5, vancomycin 30 micrograms per disk, 35° C.
[12] = test system: Klebsiella pneumoniae ATCC 10031; assay: disk diffusion assay; details: MHA 35° C.
[13] = test system: Micrococcus luteus ATCC 9341; assay: disk diffusion assay; details: kakadumycin B at 10 μg; control antibiotic; MHA 35° C.
[14] = test system: Staphylococcus aureus (GISA) ATCC 700699; assay: disk diffusion assay; details: kakadumycin B at 10 μg; control antibiotic; MHA 35° C.
[15] = test system: Escherichia coli ATCC 25922; assay: disk diffusion assay; assay type: cell-based; as to diameter of the zone of inhibition, Escherichia coli ATCC 25922: key: R = resistant
[16] = test system: Salmonella typhimurium ATCC 13311; assay: disk diffusion assay; details: kakadumycin B at 10 μg; control antibiotic; MHA 35° C.
[17] = test system: S. maltophilia ATCC 13637; assay: disk diffusion assay; assay type: cell-based, Stenotrophomas maltophilia
[18] = test system: Streptococcus pneumoniae ATCC 49619; assay: disk diffusion assay; assay type: cell-based; details: for Disk Diffusion, Streptococcus pneumoniae 49619: kakadumycin B at 10 μg, control antibiotic, MHA w/5% dsb 35° C. w/5% CO2
[19] = test system: Staphylococcus aureus (MRSA) ATCC 33591; assay: disk diffusion assay; details: MHA 35° C.
[20] = test system: Pseudomonas aeruginosa ATCC 27853; assay: disk diffusion assay; assay type: cell-based; details: for Disk Diffusion, Pseudomonas aeruginosa 27853: kakadumycin B at 10 μg, control antibiotic, MHA 35° C. As to diameter of the zone of inhibition, Pseudomonas aeruginosa ATCC 27853: key: R = resistant.
[21] = test system: Staphyloccus aureus MH II Eli Lilly Co.; assay: microbroth dilution MIC; details: drug sensitive strain
[22] = test system: Vibrio fischeri PIC 345; assay: disk diffusion assay; assay type: cell-based; details: 10 micrograms per disk; ciprofloxacin 5, vancomycin 30 micrograms per disk; 35° C.
[23] = test system: Candida glabrata ATCC 2001; assay: disk diffusion assay; assay type: cell-based; details: 10 micrograms per disk; 35° C. Also: key: R = resistant.
[24] = test system: Candida albicans ATCC 90028; assay: disk diffusion assay; assay type: cell-based; details: 10 micrograms per disk; 35° C. Also: key: R = resistant.
[25] = test system: Candida tropicalis ATCC 750; assay: disk diffusion assay; assay type: cell-based; details: 10 micrograms per disk; 35° C. Also: key: R = resistant.
[26] = test system: Human Cervical Cancer Epithelial ME180; assay: CellTiter 96 Aqueous Non-Radioactive Cell Proliferation Assay; assay type: cell-based; details: 48 hours; Table 7
Protocol: as §1

[27] = test system: Human Lung Cancer Epithelial A549; assay: as above; assay type: cell-based; details: 48 hours; Table 7
Protocol: as §1

[28] = test system: Phytophthora cinnamomi; assay: microbroth dilution MIC, plant associated microorganisms; assay type: cell-based; details: PD broth, 48 hours at 23° C.
Protocol: (§2) Incubation was for 48 hours at 23° C. A plant pathogenic strain of Pseudomonas syringae was also tested using the same PD broth medium and with concentrations of colony forming units as given above. The organisms were obtained from the Montana State University plant pathogen culture collection administered by Dr. […] The relative activities against plant pathogenic fungi ranged from a few tenths of a microgram up to thirty micrograms. Table 2 provides the results of tests of inhibitory activity of the munumbicins against various plant-pathogenic fungi and one pathogenic bacterium. The data are reported as MIC values in micrograms/ml.

[29] = test system: Geotrichum candidum; assay: as above; assay type: cell-based; details: PD broth, 48 hours at 23° C.
Protocol: as §2

[30] = test system: Pseudomonas syringae; assay: as above; assay type: cell-based; details: PD broth
Protocol: as §2

[31] = test system: Rhizoctonia solani; assay: as above; assay type: cell-based; details: PD broth, 48 hours at 23° C.
Protocol: as §2

[32] = test system: Sclerotinia sclerotiorum; assay: as above; assay type: cell-based; details: PD broth, 48 hours at 23° C.
Protocol: as §2

[33] = test system: Pythium ultimum; assay: as above; assay type: cell-based; details: PD broth, 48 hours at 23° C.
Protocol: as §2

[34] = test system: Candida parasdosis ATCC 90018; assay: disk diffusion assay; assay type: cell-based, Candida parapsilosis; details: 10 micrograms per disk; 35° C. Also: key: R = resistant.
[35] = test system: Plasmodium falciparum strain CSC-1 (Honduras); assay: antimalarial assay, 3H-phenylalanine radiobioassay in human red blood cells; details: human red blood cells, 3H-phenylalanine; standard deviation of the mean, three experiments
[36] = test system: Neisseria gonnorhea ATCC 49226; assay: disk diffusion assay; assay type: cell-based; details: 10 micrograms per disk; ciprofloxacin 5, vancomycin 30 micrograms per disk; GC agar with 1% growth supplement with 5% CO2
[37] = test system: Candida parasilosis ATCC 22019; assay: disk diffusion assay; assay type: cell-based, Candida parapsilosis; details: 10 micrograms per disk; 35° C. Also: key: R = resistant.
[38] = test system: Candida krusei ATCC 6258; assay: disk diffusion assay; assay type: cell-based; details: 10 micrograms per disk; 35° C.
[39] = test system: brine shrimp; assay: brine shrimp assays; details: preliminary assays
[40] = test system: Cryptococcus neoformans; assay: microbroth dilution MIC
[41] = test system: Candida albicans ATCC 24433; assay: disk diffusion assay; assay type: cell-based; details: 10 micrograms per disk; 35° C. Also: key: R = resistant.
[42] = test system: Aspergillus fumigatus; assay: microbroth dilution MIC
[43] = test system: Candida albicans; assay: microbroth dilution MIC
[44] = test system: DNA synthesis in Bacillus subtilis; assay: macromolecular synthesis whole cell assay, [3H]thymidine incorporation; assay type: cell-based; details: 1×MIC
[45] = test system: Enterococcus faecium ATCC 51559; assay: disk diffusion assay; assay type: cell-based; details: 10 micrograms per disk; ciprofloxacin 5, vancomycin 30 micrograms per disk; 35° C.
[46] = test system: Bacillus anthracis K8902; assay type: cell-based; details: 10 micrograms per disk; ciprofloxacin 5, vancomycin 30 micrograms per disk; 35° C.
[47] = kakadumycin B at 10 μg, control antibiotic, MHA 35° C.
[48] = kakadumycin B at 10 μg, control antibiotic
[49] = 10 micrograms per disk, ciprofloxacin 5, vancomycin 30 micrograms per disk, 35° C.
[50] = A3-5-1 10 micrograms, Cip 5 micrograms

Compound: kakadumycin B
- Disk Diffusion, Enterococcus faecalis 29212 [1, 47]: 20 mm
- Disk Diffusion, Acinetobacter spp. 49137 [2]: 11 mm
- Disk Diffusion, Staphylococcus aureus 29213 [3, 47]: 17 mm
- Disk Diffusion, Staphylococcus epidermidis 12228 [4, 47]: 23 mm
- concentration causing detectable lysis of human red blood cells [5]: > 80 micrograms/ml
- Disk Diffusion, Enterococcus faecium 49624 [6, 47]: 22 mm
- Disk Diffusion, Burkholderia cepacia 25416 [7]: R
- Disk Diffusion, Shigella dysenteriae 11835 [8]: 10 mm
- IC50 human breast cancer cell line BT 20 ([9]; text of Examples 15, 18, 19): 8.0 ng/mL
- IC50 cytotoxicity, human mammary epithelial cells [10]: 10.5±1.4 nanograms/ml
- Disk Diffusion, Enterococcus faccalis (VRE) 51299 [11]: 21 mm
- Disk Diffusion, Klebsiella pneumoniae 10031 [12, 48]: R
- Disk Diffusion, Micrococcus luteus 9341 [13]: 28 mm
- Disk Diffusion, Staphylococcus aureus (GISA) 700699 [14]: 22 mm
- Disk Diffusion, Escherichia coli 25922 [15, 47]: 8 mm
- Disk Diffusion, Salmonella typhimurium 13311 [16]: R
- Disk Diffusion, Stenotrophomas maltophilia 13637 [17, 47]: 13 mm
- Disk Diffusion, Streptococcus pneumoniae 49619 [18]: 22 mm
- Disk Diffusion, Staphylococcus aureus (MRSA) 33591 [19, 48]: 22 mm
- Disk Diffusion, Pseudomonas aeruginosa 27853 [20]: R

Compound: munumbicin D
- diameter of the zone of inhibition, Enterococcus faecalis ATCC 29212 [1, 49]: 16 mm
- MIC Staphyloccus aureus MH II Eli Lilly Co. [21]: 0.4 micrograms/ml
- diameter of the zone of inhibition, Vibrio fischeri PIC 345 [22]: 12 mm
- diameter of the zone of inhibition, Candida glabrata ATCC 2001 [23]: R
- diameter of the zone of inhibition, Acinetobacter sp. ATCC 49137 [2]: R
- diameter of the zone of inhibition, Staphylococcus aureus ATCC 29213 [3, 49]: 13 mm
- diameter of the zone of inhibition, Candida albicans ATCC 90028 [24]: R
- diameter of the zone of inhibition, S. epidermis ATCC 12228 ([4]; 10 micrograms per disk, 35° C.): 14 mm
- concentration causing detectable lysis of human red blood cells [5]: > 80 micrograms/ml
- diameter of the zone of inhibition, Candida tropicalis ATCC 750 [25]: R
- diameter of the zone of inhibition, Shigella dysenteriae ATCC 11835 ([8]; 10 micrograms per disk, 35° C.): R
- IC50 Human Breast Cancer Epithelial BT-20 ([9]; 96-144 hours, Table 7): 0.07 micrograms/ml
- IC50 Human Primary Mammary Epithelial HMEC ([10]; 48 hours, Table 7): 0.425 micrograms/ml
- IC50 Human Cervical Cancer Epithelial ME180 [26]: 0.2 micrograms/ml
- IC50 Human Lung Cancer Epithelial A549 [27]: 2.6 micrograms/ml
- diameter of the zone of inhibition, Enterococcus faecalis ATCC 51299 [11]: 16 mm
- MIC Phytophthora cinnamomi [28]: 15.6 micrograms/ml
- MIC Geotrichum candidum [29]: 31.2 micrograms/ml
- MIC Pseudomonas syringae [30]: 0.2 micrograms/ml
- MIC Rhizoctonia solani [31]: 15.6 micrograms/ml
- MIC Sclerotinia sclerotiorum [32]: 2.0 micrograms/ml
- MIC Pythium ultimum [33]: 0.4 micrograms/ml
- diameter of the zone of inhibition, Candida parasdosis ATCC 90018 [34]: R
- IC50 Plasmodium falciparum [35]: 4.5 ± 0.7 ng/mL
- diameter of the zone of inhibition, Neisseria gonnorhea ATCC 49226 [36]: 9 mm
- diameter of the zone of inhibition, Candida parasilosis ATCC 22019 [37]: R
- diameter of the zone of inhibition, Candida krusei ATCC 6258 [38]: R
- LC50 brine shrimp [39]: 1.7 micrograms/ml
- MIC Cryptococcus neoformans [40]: 10 micrograms/ml
- diameter of the zone of inhibition, Candida albicans ATCC 24433 [41]: R
- MIC Aspergillus fumigatus [42]: 20 micrograms/ml
- diameter of the zone of inhibition, Escherichia coli ATCC 25922 ([15]; 10 micrograms per disk, penicillin G 10 units per disk, 35° C.): R
- diameter of the zone of inhibition, S. maltophilia ATCC 13637 ([17]; 10 micrograms per disk, 35° C.): R
- diameter of the zone of inhibition, Streptococcus pneumoniae ATCC 49619 ([18]; 10 micrograms per disk, ciprofloxacin 5, vancomycin 30 micrograms per disk, MHA with 5% dsb. and 5% CO2): 16 mm
- MIC Candida albicans [43]: >10 micrograms/ml
- diameter of the zone of inhibition, Pseudomonas aeruginosa ATCC 27853 [20, 49]: R

Compound: O=C(O)c1cn(C2CC2)c2cc(N3CCNCC3)c(F)cc2c1=O [Ciprofloxacin, reference compound]
- diameter of the zone of inhibition, Acinetobacter sp. ATCC 49137 [2]: 29 mm
- Disk Diffusion, Acinetobacter spp. 49137 [2]: 26 mm (cipro)
- % [3H]thymidine (DNA synthesis) incorporation of that of the untreated culture ([44]; 5 min): 36%
- % [3H]thymidine (DNA synthesis) incorporation of that of the untreated culture ([44]; 10 min): 35%
- diameter of the zone of inhibition, Enterococcus faecium ATCC 49624 [6, 49]: 15 mm
- Disk Diffusion, Burkholderia cepacia 25416 [7]: 24 mm (cipro)
- Disk Diffusion, Shigella dysenteriae 11835 [8]: 24 mm (cipro)
- diameter of the zone of inhibition, Enterococcus faecalis ATCC 51299 [11]: 22 mm
- Disk Diffusion, Enterococcus faccalis (VRE) 51299 [11]: 23 mm (cipro)
- Disk Diffusion, Klebsiella pneumoniae 10031 [12, 50]: Cip (5 micro-)-34 mm
- Disk Diffusion, Klebsiella pneumoniae 10031 [12, 48]: 32 mm (cipro)
- diameter of the zone of inhibition, Enterococcus faecium ATCC 51559 [45]: 13 mm
- Disk Diffusion, Streptococcus pneumoniae 49619 [18]: 24 mm (cipro)
- diameter of the zone of inhibition, Bacillus anthracis K8902 [46]: 16 mm
- Disk Diffusion, Staphylococcus aureus (MRSA) 33591 [19, 50]: Cip (5 micro-)-26 mm
- Disk Diffusion, Staphylococcus aureus (MRSA) 33591 [19, 48]: 27 mm (cipro)
- Disk Diffusion, Pseudomonas aeruginosa 27853 [20]: 30 mm (cipro)
